Active and inactive are the calls of the source.
How the values were obtained:
[1] = molecular target: T1, RNA-binding protein pos-1 (Caenorhabditis elegans, UniProt G5EF15); experiment: disruptors of C. elegans POS-1 RNA interaction – biochemical, fluorescence polarization, dose response (AID 1964);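 also: purified POS-1 fused to maltose binding protein made in E. coli; potency of compounds blocking POS-1 binding to fluorescent RNA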
T1 sequence (G5EF15 whole entry): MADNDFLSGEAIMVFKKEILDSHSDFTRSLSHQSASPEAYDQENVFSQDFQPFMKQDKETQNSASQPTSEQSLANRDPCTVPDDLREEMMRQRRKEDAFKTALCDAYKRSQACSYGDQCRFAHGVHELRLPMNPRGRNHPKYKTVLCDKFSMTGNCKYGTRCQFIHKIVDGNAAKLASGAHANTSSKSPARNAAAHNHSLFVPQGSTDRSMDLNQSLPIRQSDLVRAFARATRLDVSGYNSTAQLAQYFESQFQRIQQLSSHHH

[2] = mitochondrial function rescue without frataxin homolog – Friedreich's ataxia, plus single-dose screen, dose response (AID 1465); type: functional;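 also: yeast depleted of Yfh1p frataxin homolog grown on glycerol needing respiration; WST-1 tetrazolium dye reduction as measure of cellular dehydrogenase metabolic activity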
HEK293 = experiment: cells; type: functional, cell-based; details: Homo sapiens
[3] = Counterscreen for IDE inhibitors: Luminescence-based cell-based high throughput dose response assay to identify compounds that are cytotoxic to HEK cells. [Related pubchem assays: 434962 (Primary screen (IDE inhibitors in singlicate)), 449730 (Counterscreen (Cytotoxicity in triplicate)), 435028 (Confirmation (IDE inhibitors in triplicate)) …; type: functional; details: HEK293
[4] = molecular target: T2, Nuclear receptor subfamily 0 group B member 1 (Homo sapiens, UniProt P51843); experiment: Luminescence-based cell-based high throughput dose response assay for inhibitors of the orphan nuclear receptor subfamily 0, group B, member 1 (DAX1; NR0B1). [Related pubchem assays (depositor defined):AID504766, AID504790]; type: functional
T2 sequence (P51843 whole entry): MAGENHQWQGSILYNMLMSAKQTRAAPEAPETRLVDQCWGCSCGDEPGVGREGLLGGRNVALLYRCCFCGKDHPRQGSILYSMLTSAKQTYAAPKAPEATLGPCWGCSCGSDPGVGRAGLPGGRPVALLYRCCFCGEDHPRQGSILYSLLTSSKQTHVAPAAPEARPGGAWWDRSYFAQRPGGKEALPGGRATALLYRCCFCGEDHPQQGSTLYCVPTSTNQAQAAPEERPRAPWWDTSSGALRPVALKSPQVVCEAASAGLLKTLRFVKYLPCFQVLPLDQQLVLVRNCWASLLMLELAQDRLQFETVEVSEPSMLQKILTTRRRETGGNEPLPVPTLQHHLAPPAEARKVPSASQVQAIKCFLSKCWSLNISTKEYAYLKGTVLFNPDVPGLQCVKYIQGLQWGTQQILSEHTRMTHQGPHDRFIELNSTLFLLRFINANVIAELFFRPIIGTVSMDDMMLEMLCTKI

Insulin-degrading enzyme = molecular target: T3, Insulin-degrading enzyme (Homo sapiens, UniProt P14735); experiment: Dose Response: Fluorescence polarization-based cell-based high throughput dose response assay for inhibitors of insulin-degrading enzyme (IDE). [Related pubchem assays: 434962 (Primary screen (IDE inhibitors in singlicate)), 449730 (Counterscreen (Cytotoxicity in triplicate)), 435028 (Confirmation (IDE inhibitors in triplicate)), 434984 (Summary …; type: functional
T3 sequence (P14735 whole entry): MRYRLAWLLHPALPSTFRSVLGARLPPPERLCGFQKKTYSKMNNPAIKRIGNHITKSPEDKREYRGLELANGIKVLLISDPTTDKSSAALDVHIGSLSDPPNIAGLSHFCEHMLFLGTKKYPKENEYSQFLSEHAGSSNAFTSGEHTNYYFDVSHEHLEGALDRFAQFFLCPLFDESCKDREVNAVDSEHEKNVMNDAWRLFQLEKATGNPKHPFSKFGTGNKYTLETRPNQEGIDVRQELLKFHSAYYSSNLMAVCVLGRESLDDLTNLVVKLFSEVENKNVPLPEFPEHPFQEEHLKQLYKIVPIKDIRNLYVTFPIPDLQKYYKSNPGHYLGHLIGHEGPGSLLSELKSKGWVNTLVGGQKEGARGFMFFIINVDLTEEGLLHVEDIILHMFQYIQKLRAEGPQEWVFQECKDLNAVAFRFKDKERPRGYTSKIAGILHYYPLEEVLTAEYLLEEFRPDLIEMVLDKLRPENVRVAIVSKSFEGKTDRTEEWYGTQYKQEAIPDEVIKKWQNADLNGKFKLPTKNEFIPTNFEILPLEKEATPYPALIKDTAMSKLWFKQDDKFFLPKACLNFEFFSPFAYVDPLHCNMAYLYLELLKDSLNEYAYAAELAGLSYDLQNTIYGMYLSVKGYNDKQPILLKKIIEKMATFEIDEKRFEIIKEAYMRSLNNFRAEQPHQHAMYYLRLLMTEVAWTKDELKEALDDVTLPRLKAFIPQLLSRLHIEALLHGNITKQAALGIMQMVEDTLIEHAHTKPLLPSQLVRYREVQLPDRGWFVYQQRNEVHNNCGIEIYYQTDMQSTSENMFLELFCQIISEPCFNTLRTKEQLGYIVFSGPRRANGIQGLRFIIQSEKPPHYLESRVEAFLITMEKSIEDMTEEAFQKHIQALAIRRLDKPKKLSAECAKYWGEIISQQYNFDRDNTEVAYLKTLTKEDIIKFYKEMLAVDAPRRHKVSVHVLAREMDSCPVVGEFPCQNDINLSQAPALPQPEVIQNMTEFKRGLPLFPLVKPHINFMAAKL

CCN(CC)c1ccc(/C=C2\C(=O)NC(=S)N(C)C2=O)o1
EC50 [1]: > 300 µM (inconclusive)
EC50 [2]: > 100 µM (active)
IC50 (HEK293): > 67.6 µM (inactive)
IC50 [3]: > 55.7 µM (not active)
IC50 [4]: > 67.6 µM (inactive)
IC50 (Insulin-degrading enzyme): 14 µM (not active)

Reference: ChEMBL document CHEMBL1201862, “PubChem BioAssay data set” (2004)
